Source: PubChem BioAssay (NCI)
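Compound exposure: 48 hours, 5 concentrations, 96-well plates. The concentration for 50% growth inhibition is given as GI50. Definition used: TGI = concentration required for complete inhibition of growth.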 Where a SMILES comes first, the peptide text is derived from it.

Tests used:
Experiment in all cases: NCI-60 cell line screen, 48 h
[1] = system: HCC-2998 colon
[2] = system: K-562 leukemia
[3] = system: KM12 colon
[4] = system: M14 melanoma
[5] = system: MALME-3M melanoma
[6] = system: MDA-N
[7] = system: PC-3 prostate
[8] = system: SK-MEL-2 melanoma
[9] = system: HS 578T breast
[10] = system: SR leukemia

| Compound | TGI [1] | TGI [2] | TGI [3] | TGI [4] | TGI [5] | TGI [6] | TGI [7] | TGI [8] | TGI [9] | TGI [10] | GI50 [1] | GI50 [9] | GI50 [2] | GI50 [3] | GI50 [4] | GI50 [5] | GI50 [7] | GI50 [8] | GI50 [10] |
| --- | --- | --- | --- | --- | --- | --- | --- | --- | --- | --- | --- | --- | --- | --- | --- | --- | --- | --- | --- |
| NCc1ccc(-c2ccc(-c3ccc(-c4ccc(CN)s4)s3)s2)s1 | > 100 µM | > 100 µM | > 100 µM | > 100 µM | > 100 µM | > 100 µM | > 100 µM | > 100 µM | – | – | – | – | – | – | – | – | – | – | – |
| O=C(NN=C1CCN(Cc2ccccc2)CC1)C(O)(c1ccccc1)c1ccccc1 | > 100 µM | – | > 100 µM | > 100 µM | > 100 µM | – | – | – | > 100 µM | > 100 µM | – | – | – | – | – | – | – | – | – |
| CCN(CC)CCn1c(C(C)(C)C)nc2ccccc21 | > 100 µM | > 100 µM | > 100 µM | > 100 µM | > 100 µM | > 100 µM | > 100 µM | – | – | > 100 µM | – | – | – | – | – | – | – | – | – |
| NC(N)=NCCCC(N=c1c2ccccc2n(O)c2ccccc12)C(=O)O (stereo not drawn) | > 100 µM | > 100 µM | > 100 µM | > 100 µM | > 100 µM | – | – | > 100 µM | – | – | – | – | – | – | – | – | – | – | – |
| CSc1ccc2c(cc1=O)[C@@H](NC(C)=O)CCc1cc(O)c(O)c(O)c1-2 | 50.5 µM | – | 41.4 µM | 36 µM | > 100 µM | 61.1 µM | > 100 µM | > 100 µM | – | > 100 µM | – | – | – | – | – | – | – | – | – |
| CCOC(=O)C1C(=O)CC(O)(OCC)C(C(=O)OCC)C1c1ccc(OC)cc1 (stereo not drawn) | > 100 µM | > 100 µM | > 100 µM | – | > 100 µM | > 100 µM | > 100 µM | > 100 µM | – | > 100 µM | – | – | – | – | – | – | – | – | – |
| CCc1ccc(-c2nnc(COc3ccc(-c4nc5ccc(C)cc5[nH]4)cc3OC)o2)cc1 | > 100 µM | > 100 µM | > 100 µM | 5.84 µM | 3.11 µM | – | > 100 µM | 7.81 µM | 5.01 µM | 5.22 µM | 11.4 µM | 2070 nM | 3.12 µM | 5.39 µM | 2270 nM | 1560 nM | 2960 nM | 2710 nM | 2080 nM |
| CC(=O)/C(C=Nc1c(C)n(C)n(-c2ccccc2)c1=O)=C(/C)O | > 100 µM | > 100 µM | > 100 µM | > 100 µM | > 100 µM | – | > 100 µM | > 100 µM | – | > 100 µM | – | – | – | – | – | – | – | – | – |
| CCCCCC(CN1CCOCC1)C(=O)/C=C/c1ccccc1 (stereo not drawn) | 4.46 µM | 5.85 µM | 3.79 µM | 5.44 µM | 6.42 µM | – | – | – | – | 8.5 µM | – | – | – | – | – | – | – | – | – |
| O=C(Cn1c(=O)ccn(C2OC(CO)C(O)C2F)c1=O)c1ccc(F)cc1 (stereo not drawn) | – | > 100 µM | > 100 µM | – | > 100 µM | > 100 µM | > 100 µM | – | > 100 µM | – | – | – | – | – | – | – | – | – | – |
| CC1=C2C(O)C(C(C)C(=O)NCC(C)C)CCC2(C)C=CC1=O (stereo not drawn) | > 100 µM | > 100 µM | > 100 µM | – | – | – | – | > 100 µM | – | – | – | – | – | – | – | – | – | – | – |
| COc1c2c(c(OC)c3c1c(=O)c1ccccc1n3C)OCO2 | > 100 µM | > 100 µM | > 41.9 µM | > 100 µM | – | – | > 100 µM | > 100 µM | > 100 µM | > 29.7 µM | – | – | – | – | – | – | – | – | – |
| C[C@]12CC[C@@H]3c4ccc(O)cc4CC[C@H]3[C@@H]1C/C(=C\c1ccc([N+](=O)[O-])cc1)C2=O | > 100 µM | > 100 µM | > 100 µM | > 100 µM | > 100 µM | > 100 µM | > 100 µM | > 100 µM | – | > 100 µM | – | – | – | – | – | – | – | – | – |
| NC(=O)NC(=O)c1cnccn1 | > 100 µM | > 100 µM | > 100 µM | > 100 µM | > 100 µM | > 100 µM | > 100 µM | > 100 µM | – | – | – | – | – | – | – | – | – | – | – |
| CC1NC(=O)CNC(=O)CNC(=O)C(Cc2ccc(O)cc2)NC(=O)C(C(C)C)NC(=O)C(C)NC1=O (stereo not drawn) (cyclo(GGAAVY); configuration not given here) | > 100 µM | > 100 µM | > 100 µM | – | > 100 µM | – | – | > 100 µM | – | – | – | – | > 100 µM | – | – | > 100000 nM | – | – | – |
| Cc1c(N2C(=O)/C(=C/C=C/c3ccccc3)N=C2c2ccccc2)c(=O)n(-c2ccccc2)n1C | – | 75 µM | 80.3 µM | > 100 µM | 92.2 µM | 38.3 µM | 76.9 µM | 44.5 µM | – | 47.1 µM | – | – | – | – | – | – | – | – | – |
| CNc1ncnc(Sc2nc(N)nc3nc[nH]c23)c1[N+](=O)[O-] | – | 5.66 µM | 25.3 µM | 19.4 µM | 18.9 µM | 14.9 µM | 22 µM | 8.9 µM | > 43.9 µM | – | – | – | – | – | – | – | – | – | – |
| Cc1ccc(Nc2nc(=S)[nH]c3[nH]ncc23)cc1 | > 100 µM | > 100 µM | > 100 µM | > 100 µM | > 100 µM | – | > 100 µM | > 100 µM | > 100 µM | > 100 µM | – | – | – | – | – | – | – | – | – |
| c1ccc(COc2ccc(CC3SCCCS3)cc2)cc1 | > 100 µM | > 100 µM | – | > 100 µM | > 100 µM | > 100 µM | > 100 µM | – | – | > 100 µM | – | – | – | – | – | – | – | – | – |
| CC/C(=N\NC(=O)c1cccnc1)c1ccc2c(c1)OCCO2 | – | > 100 µM | > 100 µM | > 100 µM | 91.5 µM | > 100 µM | > 100 µM | > 100 µM | 93.7 µM | – | – | – | – | – | – | – | – | – | – |
